Results reported in PMC10259451 (Journal of Medicinal Chemistry, 2023).
Values after ≈ are worked out from the molar mass of the structure shown. Each block holds one compound with its values, some of them ahead of it.

Tests used:
[1] = tested on: L. mexicana; conditions: administered orally; cited from earlier work
[2] = tested on: L. mexicana intracellular amastigotes; type: cell-based, Leishmania mexicana
[3] = Kinetic aqueous solubility; type: physicochemical; conditions: pH 7.4, Sol. (aqueous solubility)
[4] = tested on: L. mexicana; assay: Murine model of cutaneous leishmaniasis, footpad lesion size; type: in vivo, BALB/c mice; conditions: PO 50mg/kg/day for 10 days; p < 0.0001, Mann–Whitney

Compound: Cc1ccc(-c2nc3ccccc3s2)cc1NC(=O)c1cc([N+](=O)[O-])c(N2CCN(C)CC2)cc1Cl [compound 4]
- efficacy in murine model of cutaneous leishmaniasis [1]: less efficacious than the positive control, miltefosine

Compound: Cc1ccc(-c2nc3ccccc3s2)cc1NC(=O)c1ccc(F)c([N+](=O)[O-])c1 [compound 10]
- antileishmanial activity in words ([2]; L. mexicana amastigotes): active

- solubility [3]: ~9 µM (≈ 3.11 µg/mL)
Compound: O=C(Nc1cccc(-c2ncco2)c1)c1cc([N+](=O)[O-])c(F)cc1F [compound 71]

- EC50 ([2]; Leishmania mexicana, J774.A1, read-out: L. mexicana EC50, intracellular amastigotes in J774A.1 macrophages, mean ± SD, at least three experiments): 660 nM
Compound: O=C(Nc1ccc(Cl)c(Cl)c1)c1ccc(N2CCNCC2)c([N+](=O)[O-])c1 [compound 79]
- lesion size vs vehicle [4]: significantly smaller lesions at weeks 4 and 5
